Converted amounts (≈) assume the structure as drawn.
How the values were obtained:
[1] = residual penicillin G in the udder of a treated dry cow over 30 days; type: in vivo; details: for Residual Benzathine Penicillin G In The Udder: 500,000 units of the composition of Example 1; for Residual Procaine Penicillin G In The Udder: dosage of 500,000 u
[2] = cited from earlier work
[3] = high concentration product, e.g. 1,000,000 units procaine penicillin G and 1,000 milligrams dihydrostreptomycin; in some cases; cited from earlier work

Row | SMILES | Residual Benzathine Penicillin G In The Udder ([1]; day 8 past treatment) | Residual Benzathine Penicillin G In The Udder ([1]; day 10 past treatment) | Residual Benzathine Penicillin G In The Udder ([1]; day 12 past treatment) | Residual Benzathine Penicillin G In The Udder ([1]; day 16 past treatment) | Residual Benzathine Penicillin G In The Udder ([1]; day 23 past treatment) | Residual Benzathine Penicillin G In The Udder ([1]; day 30 past treatment) | amount remaining for effectively treating mastitis, compared with procaine penicillin ([1]; over the extended 30 day treatment) | solubility in water ([2]; water) | dissipation of procaine penicillin ([1]; after the 8th day) | initial amount of procaine penicillin remaining, compared with benzathine penicillin G ([1]; at the 8th day) | amount of procaine penicillin remaining relative to remaining benzathine penicillin G ([1]; by the tenth day) | Residual Procaine Penicillin G In The Udder ([1]; day 8 past treatment) | Residual Procaine Penicillin G In The Udder ([1]; day 10 past treatment) | Residual Procaine Penicillin G In The Udder ([1]; day 12 past treatment) | Residual Procaine Penicillin G In The Udder ([1]; day 16 past treatment, not detectable) | Residual Procaine Penicillin G In The Udder ([1]; day 23 past treatment, not detectable) | Residual Procaine Penicillin G In The Udder ([1]; day 30 past treatment, not detectable) | desired residual effects remain in the udder of a treated cow [3] | solubility (in words) ([2]; compared with limited solubility penicillin)
1 | CC1(C)S[C@@H]2[C@H](NC(=O)Cc3ccccc3)C(=O)N2[C@H]1C(=O)O [Benzathine Penicillin G, N, N dibenzyl ethylene diamine di benzyl penicillinate] | 5.37 u/ml. | 3.67 u/ml. | 4 u/ml. | 3.57 u/ml. | 2.2 u/ml. | 0.11 u/ml. | substantially greater | 500 µg/mL (≈ 1500 µM) | – | – | – | – | – | – | – | – | – | – | –
2 | CC1(C)S[C@@H]2[C@H](NC(=O)Cc3ccccc3)C(=O)N2[C@H]1C(=O)O [Procaine Penicillin G] | – | – | – | – | – | – | – | – | rapidly dissipated | higher | less than half | 7.68 u/ml. | 1.56 u/ml. | .21 u/ml. | less than 0.01 u/ml. | less than 0.01 u/ml. | less than 0.01 u/ml. | only a few days | greater solubility

Reference: patent US4172138A, “Method and composition of matter for the treatment of dry cows for mastitis” (priority 1977, dated 1979)
